Measurements reported in patent publication US10428017B2, “Modulators of the cystic fibrosis transmembrane conductance regulator protein and methods of use” (AbbVie S.à.r.l., priority 2017, dated 2019).
pEC50: −log10 of the molar value. Like-named read-outs stand apart in the source and are kept apart here.

Molecular target: T1, F508delCFTR (Homo sapiens, UniProt P13569, DEL508-508)
T1 construct: expressed in transfected cells; host or cells: CFBE4lo-F508delCFTR-HRP cells (human lung derived epithelial cell line, doxycycline-inducible)
Test: Cell Surface Expression-Horse Radish Peroxidase (CSE-HRP) Assay
Assay type: cell-based
Settings: for pEC50: CFBE4lo-F508delCFTR-HRP cells, 18-24 hours at 33° C.; for Emax / Maximum % activity (with co-corrector): maximum at any tested concentration (up to 20 μM), normalized to on-plate positive control (2 μM co-corrector); for Maximum % activity (with co-corrector): with co-corrector 2 μM
Procedure, shortened: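 CFBE4lo− cells expressing F508delCFTR with HRP in the fourth exofacial loop, induced 72 h with 0.5 μg/mL doxycycline, then treated 18-24 h at 33° C, alone or with 2 μM co-corrector (8 points, 3-fold, top 20 μM). Luminol luminescence after washing; % activity normalized to DMSO and 2 μM positive control; sigmoidal EC50 from triplicate plates.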

[1] = test compound without co-corrector, HRP luminescence readout, read-out: EC50 (without co-corrector)
[2] = test compound without co-corrector
[3] = with co-corrector 2 μM 3-[(2R,4R)-4-({[1-(2,2-difluoro-1,3-benzodioxol-5-yl)cyclopropyl]carbonyl}amino)-7-methoxy-3,4-dihydro-2H-chromen-2-yl]benzoic acid, read-out: EC50 (with co-corrector)

T1 sequence (P13569 with tags, fused parts or gaps DEL508-508): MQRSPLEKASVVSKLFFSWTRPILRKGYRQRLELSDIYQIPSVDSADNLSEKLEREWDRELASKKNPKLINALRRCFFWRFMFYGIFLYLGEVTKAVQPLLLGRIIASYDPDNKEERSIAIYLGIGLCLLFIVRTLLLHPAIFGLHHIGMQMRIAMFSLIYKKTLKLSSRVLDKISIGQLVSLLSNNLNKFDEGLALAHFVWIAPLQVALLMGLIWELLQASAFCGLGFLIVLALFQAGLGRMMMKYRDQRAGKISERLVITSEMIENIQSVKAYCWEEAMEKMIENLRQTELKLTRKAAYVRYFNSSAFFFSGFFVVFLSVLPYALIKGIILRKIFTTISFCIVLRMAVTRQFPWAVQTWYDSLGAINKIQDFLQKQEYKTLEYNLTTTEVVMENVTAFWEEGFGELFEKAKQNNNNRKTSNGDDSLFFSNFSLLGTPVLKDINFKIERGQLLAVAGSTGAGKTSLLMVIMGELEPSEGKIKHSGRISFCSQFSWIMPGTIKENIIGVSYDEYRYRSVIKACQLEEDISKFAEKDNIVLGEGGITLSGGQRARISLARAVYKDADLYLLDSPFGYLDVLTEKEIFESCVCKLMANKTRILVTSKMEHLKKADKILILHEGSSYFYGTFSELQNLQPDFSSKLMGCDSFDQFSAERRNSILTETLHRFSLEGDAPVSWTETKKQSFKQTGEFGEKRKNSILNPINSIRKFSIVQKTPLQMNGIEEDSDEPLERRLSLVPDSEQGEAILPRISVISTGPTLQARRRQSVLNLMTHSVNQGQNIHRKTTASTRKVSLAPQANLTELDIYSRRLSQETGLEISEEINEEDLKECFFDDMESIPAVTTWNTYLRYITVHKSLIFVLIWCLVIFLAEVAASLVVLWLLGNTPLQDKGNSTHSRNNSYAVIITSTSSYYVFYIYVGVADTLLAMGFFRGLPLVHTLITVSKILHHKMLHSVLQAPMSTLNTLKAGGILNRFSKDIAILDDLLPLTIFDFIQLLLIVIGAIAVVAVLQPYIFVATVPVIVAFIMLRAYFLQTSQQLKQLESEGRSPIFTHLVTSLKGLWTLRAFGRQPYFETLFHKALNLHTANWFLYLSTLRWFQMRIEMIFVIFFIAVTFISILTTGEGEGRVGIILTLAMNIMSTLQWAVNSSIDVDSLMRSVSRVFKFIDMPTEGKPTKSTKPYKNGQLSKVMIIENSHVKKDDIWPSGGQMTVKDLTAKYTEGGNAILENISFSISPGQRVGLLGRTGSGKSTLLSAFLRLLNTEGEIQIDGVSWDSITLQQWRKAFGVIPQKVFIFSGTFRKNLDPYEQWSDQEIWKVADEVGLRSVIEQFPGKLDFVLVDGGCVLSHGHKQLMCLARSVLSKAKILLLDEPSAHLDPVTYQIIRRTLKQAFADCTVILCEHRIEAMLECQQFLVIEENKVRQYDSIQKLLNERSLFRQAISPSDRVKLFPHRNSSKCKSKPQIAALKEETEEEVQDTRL

Row | Structure (SMILES) | pEC50 [1] | Emax [2] [%] | pEC50 [3] | Maximum % activity (with co-corrector)
1 | COc1ccc(C2CCC2)c2c1C(C(=O)NS(=O)(=O)c1cccc3c1CCCN3)CCO2 (stereo not shown) [Example 85, 8-cyclobutyl-5-methoxy-N-(1,2,3,4-tetrahydroquinoline-5-sulfonyl)-3,4-dihydro-2H-1-benzopyran-4-carboxamide] | > 5.52 | ≥ 150 | > 5.52 | +++ (≥350)
2 | COc1ccc(C2CCC2)c2c1C(C(=O)NS(=O)(=O)c1cccc3ncn(C)c13)CO2 (stereo not shown) [Example 87, 7-cyclobutyl-4-methoxy-N-(1-methyl-1H-benzimidazole-7-sulfonyl)-2,3-dihydro-1-benzofuran-3-carboxamide] | > 5.52 | ≥ 150 | > 5.52 | +++ (≥350)
3 | COc1ccc(C2CCC2)c2c1C(C(=O)NS(=O)(=O)c1cccn3nccc13)CO2 (stereo not shown) [Example 88, 7-cyclobutyl-4-methoxy-N-(pyrazolo[1,5-a]pyridine-4-sulfonyl)-2,3-dihydro-1-benzofuran-3-carboxamide] | 5.00 to 5.52 | ≥ 150 | > 5.52 | +++ (≥350)
4 | COc1ccc(C2CCC2)c2c1C(C(=O)NS(=O)(=O)c1cccc3c1NCCC3)CO2 (stereo not shown) [Example 90, 7-cyclobutyl-4-methoxy-N-(1,2,3,4-tetrahydroquinoline-8-sulfonyl)-2,3-dihydro-1-benzofuran-3-carboxamide] | 5.00 to 5.52 | ≥ 150 | > 5.52 | +++ (≥350)
5 | COc1ccc(C2CCC2)c2c1[C@@H](C(=O)NS(=O)(=O)c1cccc3c1CCCN3)CCO2 [Example 91, (4S)-8-cyclobutyl-5-methoxy-N-(1,2,3,4-tetrahydroquinoline-5-sulfonyl)-3,4-dihydro-2H-1-benzopyran-4-carboxamide] | 5.00 to 5.52 | ≥ 150 | 5.00 to 5.52 | +++ (≥350)
6 | COc1ccc(C2CCC2)c2c1[C@H](C(=O)NS(=O)(=O)c1cccc3c1CCCN3)CCO2 [Example 92, (4R)-8-cyclobutyl-5-methoxy-N-(1,2,3,4-tetrahydroquinoline-5-sulfonyl)-3,4-dihydro-2H-1-benzopyran-4-carboxamide] | > 5.52 | ≥ 150 | > 5.52 | +++ (≥350)
7 | COc1ccc(C2CCC2)c2c1C(C(=O)NS(=O)(=O)c1cccc3c1CCCN3)CC(C)(C)O2 (stereo not shown) [Example 93, 8-cyclobutyl-5-methoxy-2,2-dimethyl-N-(1,2,3,4-tetrahydroquinoline-5-sulfonyl)-3,4-dihydro-2H-1-benzopyran-4-carboxamide] | > 5.52 | ≥ 150 | > 5.52 | +++ (≥350)
8 | COc1ccc(C2CCC2)c2c1[C@@H](C(=O)NS(=O)(=O)c1cccc3c1CCCN3)CC(C)(C)O2 [Example 96, (4S)-8-cyclobutyl-5-methoxy-2,2-dimethyl-N-(1,2,3,4-tetrahydroquinoline-5-sulfonyl)-3,4-dihydro-2H-1-benzopyran-4-carboxamide] | > 5.52 | ≥ 150 | > 5.52 | +++ (≥350)
9 | COc1ccc(C2CCC2)c2c1[C@H](C(=O)NS(=O)(=O)c1cccc3c1NCCC3)CO2 [Example 99, (3S)-7-cyclobutyl-4-methoxy-N-(1,2,3,4-tetrahydroquinoline-8-sulfonyl)-2,3-dihydro-1-benzofuran-3-carboxamide] | > 5.52 | ≥ 150 | > 5.52 | +++ (≥350)
10 | COc1ccc(C2CCC2)c2c1[C@@H](C(=O)NS(=O)(=O)c1cccc3c1CCCN3)CO2 [Example 100, (3R)-7-cyclobutyl-4-methoxy-N-(1,2,3,4-tetrahydroquinoline-5-sulfonyl)-2,3-dihydro-1-benzofuran-3-carboxamide] | 5.00 to 5.52 | 50 to 150 | 5.00 to 5.52 | +++ (≥350)
11 | COc1ccc(C2CCC2)c2c1[C@H](C(=O)NS(=O)(=O)c1cccc3c1CCCN3)CO2 [Example 101, (3S)-7-cyclobutyl-4-methoxy-N-(1,2,3,4-tetrahydroquinoline-5-sulfonyl)-2,3-dihydro-1-benzofuran-3-carboxamide] | > 5.52 | ≥ 150 | > 5.52 | +++ (≥350)

Further lines, results first:

Row | pEC50 [1] | Emax [2] [%] | pEC50 [3] | Maximum % activity (with co-corrector) | Structure (SMILES)
12 | 5.00 to 5.52 | ≥ 150 | > 5.52 | +++ (≥350) | COc1ccc(C2CCC2)c2c1C(C(=O)NS(=O)(=O)c1cccc3ncccc13)OCC2 (stereo not shown) [Example 81, 5-cyclobutyl-8-methoxy-N-(quinoline-5-sulfonyl)-3,4-dihydro-1H-2-benzopyran-1-carboxamide]
13 | > 5.52 | ≥ 150 | > 5.52 | +++ (≥350) | COc1ccc(C2CCC2)c2c1[C@H](C(=O)NS(=O)(=O)c1cccc3ncccc13)CC(C)(C)O2 [Example 86, (4R)-8-cyclobutyl-5-methoxy-2,2-dimethyl-N-(quinoline-5-sulfonyl)-3,4-dihydro-2H-1-benzopyran-4-carboxamide]
14 | > 5.52 | ≥ 150 | > 5.52 | +++ (≥350) | COc1ccc(C2CCC2)c2c1[C@H](C(=O)NS(=O)(=O)c1cccc3cnn(C)c13)CO2 [Example 95, (3S)-7-cyclobutyl-4-methoxy-N-(1-methyl-1H-indazole-7-sulfonyl)-2,3-dihydro-1-benzofuran-3-carboxamide]
15 | > 5.52 | ≥ 150 | > 5.52 | +++ (≥350) | COc1ccc(C2CCC2)c2c1C(C(=O)NS(=O)(=O)c1cccc3[nH]ccc13)CCO2 (stereo not shown) [Example 102, 8-cyclobutyl-N-(1H-indole-4-sulfonyl)-5-methoxy-3,4-dihydro-2H-1-benzopyran-4-carboxamide]
16 | 5.00 to 5.52 | ≥ 150 | > 5.52 | +++ (≥350) | COc1ccc(C2CCC2)c2c1[C@@H](C(=O)NS(=O)(=O)c1cccc3[nH]ccc13)CCO2 [Example 103, (4S)-8-cyclobutyl-N-(1H-indole-4-sulfonyl)-5-methoxy-3,4-dihydro-2H-1-benzopyran-4-carboxamide]
17 | > 5.52 | ≥ 150 | > 5.52 | +++ (≥350) | COc1ccc(C2CCC2)c2c1[C@H](C(=O)NS(=O)(=O)c1cccc3[nH]ccc13)CCO2 [Example 104, (4R)-8-cyclobutyl-N-(1H-indole-4-sulfonyl)-5-methoxy-3,4-dihydro-2H-1-benzopyran-4-carboxamide]
18 | 5.00 to 5.52 | ≥ 150 | > 5.52 | +++ (≥350) | COc1ccc(C2CCC2)c2c1OCCC2C(=O)NS(=O)(=O)c1cccc2ncccc12 (stereo not shown) [Example 105, 5-cyclobutyl-8-methoxy-N-(quinoline-5-sulfonyl)-3,4-dihydro-2H-1-benzopyran-4-carboxamide]
19 | 5.00 to 5.52 | 50 to 150 | > 5.52 | +++ (≥350) | COc1ccc(Br)c2c1CCOC2C(=O)NS(=O)(=O)c1cccc2ccccc12 (stereo not shown) [Example 108, 8-bromo-5-methoxy-N-(naphthalene-1-sulfonyl)-3,4-dihydro-1H-2-benzopyran-1-carboxamide]
20 | – | – | 5.00 to 5.52 | ++ (≥150 and <350) | O=C(NS(=O)(=O)c1cccc2ccccc12)C1OCCc2ccc(OC(F)(F)F)cc21 (stereo not shown) [Example 109, N-(naphthalene-1-sulfonyl)-7-(trifluoromethoxy)-3,4-dihydro-1H-2-benzopyran-1-carboxamide]
21 | ≤ 5.00 | < 50 | 5.00 to 5.52 | ++ (≥150 and <350) | COc1cccc2c1CCOC2C(=O)NS(=O)(=O)c1cccc2ccccc12 (stereo not shown) [Example 110, 5-methoxy-N-(naphthalene-1-sulfonyl)-3,4-dihydro-1H-2-benzopyran-1-carboxamide]
